Patent US7456172B2, “Succinoylamino benzodiazepines as inhibitors of Aβ protein production” (Bristol-Myers Squibb Pharma Company, priority 1998, dated 2008)
Where a name gives a salt, the structure may show the parent alone. One block for each molecule: values may come before it.

Compound: C=CC[C@H](C(N)=O)[C@@H](CC(C)C)C(=O)NC1N=C(c2cccc(OC)c2)c2ccccc2N(C)C1=O (stereo partly shown)
- melting point: 225 to 230 °C

Compound: C=CC[C@H](C(N)=O)[C@@H](CC(C)C)C(=O)NC1N=C(c2ccccc2)c2cc(OC)ccc2N(C)C1=O (stereo partly shown)
- melting point: 244 to 255 °C

Compound: CC(C)C[C@@H](C(=O)N[C@H]1N=C(c2ccccc2)c2ccccc2N(C)C1=O)[C@@H](CC1CC1)C(N)=O (as salt: succinate)
- melting point: 146 to 148 °C

Compound: C=CC[C@H](C(N)=O)[C@@H](CC(C)C)C(=O)NC1N=C(N2CCOCC2)c2ccccc2N(C)C1=O (stereo partly drawn) [Example 19, (2R,3S) N1-[1,3-dihydro-1-methyl-2-oxo-5-(N-morpholino)-2H-1,4-benzodiazepin-3-yl]-2-(2-methylpropyl)-3-allyl-butanediamide]
- melting point: 145 to 151 °C

Compound: C=CC[C@H](C(N)=O)[C@@H](CC(C)C)C(=O)NC1N=C(N(C)C)c2ccccc2N(C)C1=O (stereo partly drawn) [Example 20, (2R,3S) N1-[1,3-dihydro-1-methyl-2-oxo-5-(dimethylamino)-2H-1,4-benzodiazepin-3-yl]-2-(2-methylpropyl)-3-allyl-butanediamide]
- melting point: 230 to 232 °C

Compound: C=CC[C@H](C(N)=O)[C@@H](CC(C)C)C(=O)NC1N=C(N2CCCCC2)c2ccccc2N(C)C1=O (stereo partly drawn) [Example 22, (2R,3S) N1-[1,3-dihydro-1-methyl-2-oxo-5-(N-piperidinyl)-2H-1,4-benzodiazepin-3-yl]-2-(2-methylpropyl)-3-allyl-butanediamide]
- melting point: 231 to 238 °C

Compound: C=CC[C@H](C(N)=O)[C@@H](CC(C)C)C(=O)NC1N=C(N2CCCCCC2)c2ccccc2N(C)C1=O (stereo partly drawn) [Example 23, (2R,3S) N1-[1,3-dihydro-1-methyl-2-oxo-5-(N-homopiperidinyl)-2H-1,4-benzodiazepin-3-yl]-2-(2-methylpropyl)-3-allyl-butanediamide]
- melting point: 232 to 237 °C

The remaining lines, values ahead:

- melting point: 251 to 253 °C
Compound: C=CC[C@H](C(N)=O)[C@@H](CC(C)C)C(=O)NC1N=C(c2cccnc2)c2ccccc2N(C)C1=O (stereo partly shown)

- melting point: 266.6 to 267.8 °C
Compound: C=CC[C@H](C(N)=O)[C@@H](CC(C)C)C(=O)NC1N=C(N(C)c2ccccc2)c2ccccc2N(C)C1=O (stereo partly drawn) [Example 21, (2R,3S) N1-[1,3-dihydro-1-methyl-2-oxo-5-(N-methyl-N-phenylamino)-2H-1,4-benzodiazepin-3-yl]-2-(2-methylpropyl)-3-allyl-butanediamide]

- melting point: 137 to 145 °C
Compound: C=CC[C@H](C(N)=O)[C@@H](CC(C)C)C(=O)NC1C(=O)N(C)c2ccccc2-c2ccccc21 (stereo partly drawn) [Example 47, (2R,3S) N1-[6,7-dihydro-5-methyl-6-oxo-5H-dibenz[b,d]azepin-7-yl]-2-(2-methylpropyl)-3-allyl-butanediamide]
